Source: the supplement of paper PMC10307832

What was measured:
Test in all cases: relative viability (nuclei count vs DMSO), 5 days (fraction); higher = more cells survive
[1] = compound: C[C@]1(c2nc3c(C(N)=O)cccc3[nH]2)CCCN1 [Veliparib] + O=C(CCCCCCC(=O)Nc1ccccc1)NO [Vorinostat] (partner 1 µM)
Summary of the method: (§1)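 Values are medians from duplicate plates. Each reflects relative viability, defined as the nuclei count of treated wells over that of vehicle wells. Lung cancer cell lines in 1536-well plates were pin-tool dosed one day after seeding with one drug alone or with a fixed anchor-drug dose plus five library-drug doses (not always all listed) in √10 steps, then fixed, stained and imaged at 4× after 5 days.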

[2] = compound: C[C@]1(c2nc3c(C(N)=O)cccc3[nH]2)CCCN1 [Veliparib] + CS(=O)(=O)N1CCN(Cc2cc3nc(-c4cccc5[nH]ncc45)nc(N4CCOCC4)c3s2)CC1 [Pictilisib] (partner 1 µM)
Summary of the method: as §1

[3] = compound: C[C@]1(c2nc3c(C(N)=O)cccc3[nH]2)CCCN1 [Veliparib] + CC(=O)Nc1cccc(-n2c(=O)n(C3CC3)c(=O)c3c(Nc4ccc(I)cc4F)n(C)c(=O)c(C)c32)c1 [Trametinib] (partner 0.02 µM)
Summary of the method: as §1

[4] = compound: COC1=CC=C(C=C1)CN2C=CC3=C2C=C(C=C3)C(=O)NO + N=C(N)NC(=N)NCCc1ccccc1 [Phenformin] (partner 250 µM)
Summary of the method: as §1

Row | Cell Line | relative viability ([1]; first compound 0.02 µM) | relative viability ([1]; first compound 0.2 µM) | relative viability ([1]; first compound 0.6325 µM) | relative viability ([1]; first compound 2 µM) | relative viability ([2]; first compound 0.02 µM) | relative viability ([2]; first compound 0.06325 µM) | relative viability ([2]; first compound 0.2 µM) | relative viability ([2]; first compound 0.6325 µM) | relative viability ([2]; first compound 2 µM) | relative viability ([3]; first compound 0.02 µM) | relative viability ([3]; first compound 0.2 µM) | relative viability ([3]; first compound 0.6325 µM) | relative viability ([3]; first compound 2 µM) | relative viability ([4]; first compound 0.08 µM) | relative viability ([4]; first compound 0.253 µM) | relative viability ([4]; first compound 0.8 µM) | relative viability ([4]; first compound 2.53 µM) | relative viability ([4]; first compound 8 µM) | relative viability ([1]; first compound 0.06325 µM) | relative viability ([3]; first compound 0.06325 µM)
1 | EMC-BAC-2 | 0.606 | 0.646 | 0.638 | 0.493 | 0.483 | 0.542 | 0.569 | 0.524 | 0.541 | 1.01 | 0.922 | 0.752 | 0.913 | 0.367 | 0.543 | 0.422 | 0.526 | 0.449 |  | 
2 | EPLC-272H |  | 0.424 | 0.518 | 0.474 |  | 0.227 | 0.283 | 0.278 | 0.0962 |  | 0.297 | 0.268 | 0.319 | 0.265 |  | 0.329 | 0.318 | 0.333 | 0.457 | 0.303
3 | H3255 | 0.707 | 0.793 | 0.799 | 0.936 | 0.476 | 0.514 | 0.48 | 0.458 | 0.499 | 0.614 | 0.672 | 0.624 | 0.632 | 0.334 | 0.39 | 0.347 | 0.353 | 0.359 | 0.768 | 0.572
4 | HARA |  | 0.521 | 0.529 | 0.565 | 0.498 | 0.49 | 0.244 | 0.398 | 0.415 | 0.745 | 0.949 | 0.796 | 0.798 |  | 0.455 | 0.511 | 0.43 | 0.317 | 0.492 | 
5 | HCC-15 | 0.838 | 0.862 | 0.803 | 0.757 | 0.581 | 0.748 | 0.682 | 0.691 | 0.662 | 0.422 | 0.429 | 0.357 | 0.4 | 0.344 | 0.515 | 0.486 | 0.483 | 0.408 | 0.927 | 0.374
6 | HCC-44 | 1.07 | 1.07 | 1.06 | 1.15 | 0.63 | 0.566 | 0.577 | 0.544 | 0.644 | 1.07 | 1.14 | 1.04 | 1.06 | 0.166 | 0.231 | 0.185 | 0.228 | 0.16 | 1.03 | 0.938
7 | HCC-78 | 0.5 | 0.453 | 0.44 | 0.452 | 0.226 | 0.222 | 0.267 | 0.236 | 0.231 | 0.84 | 0.869 | 0.617 | 0.669 | 0.62 | 0.63 | 0.718 | 0.818 | 0.65 | 0.437 | 0.701
8 | HCC-366 | 0.379 | 0.296 | 0.27 | 0.289 | 0.114 | 0.15 | 0.122 | 0.152 | 0.15 | 0.375 | 0.384 | 0.327 | 0.42 | 0.633 | 0.624 | 0.634 | 0.599 | 0.532 | 0.232 | 0.312
9 | HCC-827 | 0.764 | 0.793 | 0.671 | 0.746 | 0.936 | 0.957 | 1.01 | 0.984 | 1.06 | 0.59 | 0.529 | 0.504 | 0.516 | 0.427 | 0.382 | 0.386 | 0.417 | 0.394 | 0.834 | 0.514
10 | HOP-62 | 0.557 | 0.593 | 0.539 | 0.68 | 0.705 | 0.79 | 0.818 | 0.548 | 0.738 | 0.375 | 0.351 | 0.39 | 0.407 | 0.583 | 0.658 | 0.696 | 0.643 | 0.623 | 0.527 | 0.322
11 | LC-2-ad | 0.434 | 0.717 | 0.655 | 0.788 |  | 0.431 | 0.428 | 0.464 | 0.497 | 0.897 | 0.914 | 0.891 | 0.912 | 0.493 | 0.577 | 0.561 | 0.588 | 0.479 | 0.656 | 0.904
12 | LCLC-97TM1 | 0.455 | 0.849 | 0.632 | 0.637 | 0.155 | 0.224 | 0.215 |  | 0.235 | 0.221 | 0.202 | 0.183 | 0.198 | 0.176 | 0.399 | 0.441 | 0.46 | 0.353 | 0.797 | 0.178
13 | LCLC-103H | 0.846 | 0.819 | 0.749 | 0.77 | 0.685 | 0.615 | 0.577 | 0.666 | 0.651 | 0.764 | 0.668 | 0.74 | 0.718 | 0.339 | 0.339 | 0.398 | 0.347 | 0.287 | 0.726 | 0.606
14 | LK-2 | 0.223 | 0.319 | 0.258 | 0.29 |  | 0.486 | 0.618 | 0.607 | 0.625 | 0.773 | 0.788 | 0.763 | 0.766 |  | 0.462 | 0.579 | 0.396 | 0.24 | 0.284 | 0.773
15 | LOU-NH91 | 0.846 | 0.919 | 0.822 | 0.945 | 0.506 | 0.436 | 0.563 | 0.528 | 0.531 | 0.814 | 0.793 | 0.725 | 0.811 | 0.612 | 0.678 | 0.702 | 0.766 | 0.637 | 0.842 | 0.789
16 | LU99A | 0.513 | 0.396 | 0.441 | 0.402 | 0.349 | 0.279 | 0.296 | 0.278 | 0.323 | 0.552 | 0.566 | 0.537 | 0.571 |  | 0.826 | 0.915 | 0.875 | 0.685 | 0.477 | 0.536
17 | LXF-289 | 0.809 | 0.743 | 0.655 | 0.794 | 0.78 | 0.778 | 0.768 | 0.746 | 0.755 | 0.671 | 0.668 | 0.681 | 0.657 |  | 0.554 | 0.517 | 0.512 | 0.508 | 0.812 | 0.691
18 | NCI-H23 | 0.633 | 0.544 | 0.543 | 0.56 | 0.598 | 0.477 | 0.451 | 0.449 | 0.563 | 0.448 | 0.509 | 0.4 | 0.469 | 0.699 | 0.843 | 0.852 | 0.712 | 0.653 | 0.45 | 0.413
19 | NCI-H322M |  | 0.899 | 0.976 | 0.717 | 0.496 | 0.459 | 0.573 | 0.525 | 0.321 |  | 0.465 | 0.5 | 0.494 |  | 0.821 | 0.762 | 0.737 | 0.763 | 0.873 | 0.52
20 | NCI-H358 | 0.728 | 0.877 | 0.669 | 0.76 |  | 0.37 | 0.38 | 0.315 | 0.342 | 0.0965 | 0.195 | 0.115 | 0.152 |  | 0.351 | 0.411 | 0.314 | 0.267 | 0.661 | 0.12
21 | NCI-H441 | 0.75 | 0.63 | 0.695 | 0.83 | 0.472 | 0.501 | 0.588 | 0.504 | 0.516 | 0.489 | 0.488 | 0.477 | 0.568 | 0.914 | 0.89 | 0.907 | 0.863 | 0.653 | 0.552 | 0.497
22 | NCI-H460 | 0.693 | 0.599 | 0.602 | 0.635 | 0.349 | 0.335 | 0.325 | 0.347 | 0.377 | 0.185 | 0.1 | 0.109 | 0.202 | 0.519 | 0.463 | 0.509 | 0.473 | 0.188 | 0.608 | 0.0956
23 | NCI-H520 | 0.769 | 0.612 | 0.727 | 0.773 | 0.392 | 0.267 | 0.316 | 0.283 | 0.227 | 0.749 | 0.721 | 0.646 | 0.705 |  | 0.618 | 0.645 | 0.703 | 0.503 | 0.62 | 0.68
24 | NCI-H596 | 0.659 | 0.498 | 0.624 | 0.55 | 0.394 | 0.35 | 0.4 | 0.362 | 0.416 | 0.83 | 0.77 | 0.806 | 0.793 | 0.774 | 0.99 | 0.769 | 0.655 | 0.666 | 0.55 | 0.666
25 | NCI-H647 | 0.584 | 0.385 | 0.366 | 0.427 | 0.347 | 0.368 | 0.436 | 0.447 | 0.265 | 0.502 | 0.483 | 0.478 | 0.481 | 0.371 | 0.525 | 0.443 | 0.474 | 0.404 | 0.606 | 0.451
26 | NCI-H650 | 0.29 | 0.397 | 0.457 | 0.432 | 0.968 | 0.855 | 0.926 | 0.743 | 0.809 | 0.999 | 0.988 | 0.938 | 0.971 | 0.468 | 0.45 | 0.488 | 0.458 | 0.399 | 0.333 | 0.999
27 | NCI-H661 | 0.815 | 0.713 | 0.697 | 0.76 | 0.397 | 0.317 | 0.354 | 0.359 | 0.393 | 0.525 | 0.584 | 0.543 | 0.64 |  | 0.271 | 0.313 | 0.272 | 0.29 | 0.807 | 0.646
28 | NCI-H727 | 1.11 | 1.1 | 1.14 | 1.04 | 0.195 | 0.33 | 0.433 | 0.296 | 0.431 | 0.379 | 0.42 | 0.428 | 0.416 | 0.603 | 0.475 | 0.517 | 0.534 | 0.415 | 0.948 | 0.39
